Measured values published in PMC12323867 (RSC Medicinal Chemistry, 2025).

System: H3K4me2 in HCT116 cells
Assay: Histone methylation H3K4me2 by western blot
Format: cell-based, human
Conditions: HCT116, 0.1–10 μM, 24 hours, H3K4me2 antibody
Description: We next screened 25–33 and SP2509 over a concentration range of 0.1–10 μM in HCT116 cells (obtained from ATCC, CCL-247) and determined LSD1 abundance after 24 hours with an antibody for LSD1 (Fig. S4 ^†). […] Using the same conditions, we also determined the effects of SP2509, 25, 27, 28, 30 and 31 on histone H3 lysine 4 dimethyl (H3K4me2) a validated substrate for LSD1 using a specific antibody for H3K4me2 (Fig. S4 ^†).
Compounds 39–41, 49, 52 and 54 were screened for LSD1 degradation in HCT116 cells using a specific antibody for LSD1. This was performed side-by-side with TCP. Compounds were tested at concentration ranges of 0.2–20 μM and LSD1 abundance was quantified at 24 hours (Fig. S5 ^†). 49, 52 and 54 were also evaluated at 48 and 72 hours. […] We also determined the effects of these compounds on the histone methyl marker H3K4me2 (Fig. S5 and S6 ^†).
2.5 Protocols for LSD1 degradation and histone methylation in HCT116 cells HCT116 human colon carcinoma cells were grown in Dulbecco’s Modified Eagle Medium (DMEM) supplemented with Fetal Bovine Serum (FBS, 10% final concentration) and 1x glutamine/penicillin/streptomycin. Cells were incubated at 37 °C and 5% CO2. Cells were treated with compounds (0.1-20 µM) with a final DMSO volume of 0.04%. DMSO (0.04%) treated and untreated (WT) cells were included as controls.
HCT116 cells were seeded into six well plates (400000 cells per well) and after requisite compound treatment time (24h, 48h, 72h) cells were harvested and either snap-frozen in liquid nitrogen or lysed in lysis buffer (50mM Tris-HCl, 150 mM NaCl, 0.5% NP-40, 0.5% Triton X-100 + protease inhibitor) on ice for 30 mins. This was centrifuged (15000 rpm, 4 °C, 15 mins) and the supernatant collected.
H2SO4 (0.4 M, equal volume) was added to the pellets for histone extraction and the tubes incubated overnight at 4 °C. Following this, the histone extract was centrifuged (15000 rpm, 4 °C, 15 mins) and the supernatant collected. Protein concentrations of whole cell extract were quantified via Bradford Assay using BIO-RAD Protein Assay Dye Reagent Concentrate.
Western blots were run on NuPAGE 4-12% Bis-Tris gels, with 30 µg of protein (whole cell extract) or an equivalent volume of histone extract loaded per lane, with all extracts dyed with 4x NuPAGE LDS Sample Buffer. PageRuler Plus Prestained Ladder was used as a reference. Gel electrophoresis was carried out at 140 V for 60-90 mins, following which the proteins were transferred onto nitrocellulose membrane at 30 V for 60 mins. Membranes were blocked in LI-COR Intercept Blocking Buffer overnight at RT on a roller, following which the membrane was probed with primary antibodies for 1 h at RT. The membrane was washed with PBS + 0.1% Tween (3 x 10 mins), then incubated with secondary antibodies for 50 mins at RT. The membrane was washed again (PBS Tween 2 x 10 mins, PBS 1 x 10 mins) following which the blot was visualised with the Odyssey Infrared Imaging System. Image processing and quantification was performed with ImageStudio Lite. […]
a-tubulin (mouse) – Sigma, t5168 (1:10000 dilution)

C/C(=N\NC(=O)c1cccc(S(=O)(=O)N2CCOCC2)c1)c1cc(Cl)ccc1O [SP2509, reference compound]
H3K4me2 abundance: no increase in H3K4me2
